Laboratory results as given in ChEMBL document CHEMBL4219060, “Discovery of EBI-1051: A novel and orally efficacious MEK inhibitor with benzofuran scaffold” (Bioorg Med Chem, 2018).
One block for each molecule: values may come before it. Activity calls are given as the source filed them. The rule behind the calls is not given here.

How the values were obtained:
COLO 205 [1] = experiment: Antiproliferative activity against human COLO205 cells harboring BRAF mutant/wild type KRAS/wild type PIK3CA after 72 hrs by CCK8 assay; details: COLO 205, 72 h
[2] = target: Dual specificity mitogen-activated protein kinase kinase 1 (Homo sapiens, UniProt Q02750)
Description: Inhibition of MEK1 (unknown origin) using Ser/Thr 03 peptide substrate after 4 hrs by fluorescence assay

[3] = Cmax in Sprague-Dawley rat at 10 mg/kg, po via gavage; type: ADME, organism-based; set-up: dose 10 mg/kg, route oral; details: in vivo
[4] = AUC (0 to t) in Sprague-Dawley rat at 10 mg/kg, po via gavage; type: ADME, organism-based; details: in vivo
[5] = Half life in Sprague-Dawley rat at 10 mg/kg, po via gavage; type: ADME, organism-based; details: in vivo
[6] = Clearance in Sprague-Dawley rat at 2 mg/kg, iv; type: ADME, organism-based; details: in vivo
[7] = Volume of distribution at steady state in Sprague-Dawley rat at 2 mg/kg, iv; type: ADME, organism-based; details: in vivo, read-out: Vdss
[8] = Oral bioavailability in Sprague-Dawley rat at 10 mg/kg via gavage; type: ADME, organism-based; details: in vivo
A549 = experiment: Antiproliferative activity against human A549 cells harboring KRAS mutant/wild type BRAF/PIK3CA after 72 hrs by CCK8 assay; type: functional, cell-based
MDA-MB-231 = experiment: Antiproliferative activity against human MDA-MB-231 cells harboring KRAS mutant/wild type BRAF/PIK3CA after 72 hrs by CCK8 assay; type: functional, cell-based
Calu-6 = experiment: Antiproliferative activity against human Calu6 cells harboring KRAS mutant/wild type BRAF/PIK3CA after 72 hrs by CCK8 assay; type: functional, cell-based
SW480 = experiment: Antiproliferative activity against human SW480 cells harboring KRAS mutant/wild type BRAF/PIK3CA after 72 hrs by CCK8 assay; type: functional, cell-based
DLD-1 = experiment: Antiproliferative activity against human DLD1 cells harboring KRAS mutant/wild type BRAF/PIK3CA D549N mutant after 72 hrs by CCK8 assay; type: functional, cell-based
HT-29 = experiment: Antiproliferative activity against human HT-29 cells harboring BRAF mutant/PIK3CA mutant/wild type KRAS after 72 hrs by CCK8 assay; type: functional, cell-based
U-937 = experiment: Antiproliferative activity against human U937 cells harboring wild type BRAF/KRAS/PIK3CA after 72 hrs by CCK8 assay; type: functional, cell-based
HeLa = experiment: Antiproliferative activity against human HeLa cells harboring wild type BRAF/KRAS/PIK3CA after 72 hrs by CCK8 assay; type: functional, cell-based
NCI-H1299 = experiment: Antiproliferative activity against human NCI-H1299 cells harboring wild type BRAF/KRAS/PIK3CA after 72 hrs by CCK8 assay; type: functional, cell-based
COLO 205 [9] = experiment: Antitumor activity against human COLO205 cells xenografted in athymic nude mouse assessed as tumor growth inhibition at 10 mg/kg, po qd for 14 days measured twice per week during compound dosing relative to control; details: COLO 205, po, 336 h, read-out: TGI
Mus musculus = experiment: Toxicity in athymic nude mouse xenografted with human COLO205 cells assessed as body weight loss at 10 mg/kg, po qd for 14 days measured twice per week during compound dosing; type: organism-based; details: in vivo, 336 h

Sequence of Dual specificity mitogen-activated protein kinase kinase 1 (Q02750 whole entry): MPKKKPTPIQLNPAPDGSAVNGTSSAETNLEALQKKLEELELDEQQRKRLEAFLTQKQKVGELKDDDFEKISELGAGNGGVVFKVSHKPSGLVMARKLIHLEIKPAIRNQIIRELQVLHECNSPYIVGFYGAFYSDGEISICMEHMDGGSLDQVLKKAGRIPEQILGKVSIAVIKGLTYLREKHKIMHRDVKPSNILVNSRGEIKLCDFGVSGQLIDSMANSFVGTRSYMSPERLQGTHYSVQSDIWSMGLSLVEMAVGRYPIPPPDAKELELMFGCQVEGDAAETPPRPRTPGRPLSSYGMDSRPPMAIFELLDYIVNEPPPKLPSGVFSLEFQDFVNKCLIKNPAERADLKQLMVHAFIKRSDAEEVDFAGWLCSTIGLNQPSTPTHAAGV

SMILES: CC(C)(CO)ONC(=O)c1cc2ccoc2c(F)c1Nc1ccc(I)cc1F
IC50 (COLO 205 [1]): 12 nM

SMILES: O=C(NOC[C@@H](O)CO)c1cc2c(c(F)c1Nc1ccc(I)cc1F)OCC2
IC50 (COLO 205 [1]): 90.1 nM

SMILES: O=C(NOC[C@H](O)CO)c1cc2ccoc2c(F)c1Nc1ccc(I)cc1F
IC50 (COLO 205 [1]): 2.5 nM
Cmax [3]: 695 ng/mL
AUC(0-t) [4]: 2860 ng·h/mL
half-life [5]: 3.4 h

SMILES: O=C(NOCCO)c1cc2c(c(Cl)c1Nc1ccc(I)cc1F)OCC2
IC50 (COLO 205 [1]): 38.4 nM

SMILES: O=C(NOCCO)c1cc2c(c(F)c1Nc1ccc(Br)cc1Cl)OCC2
IC50 (COLO 205 [1]): > 1000 nM

SMILES: O=C(NC[C@H](O)CO)c1cc2c(c(F)c1Nc1ccc(I)cc1F)OCC2
IC50 [2]: > 1000 nM

SMILES: O=C(NC[C@@H](O)CO)c1cc2c(c(F)c1Nc1ccc(I)cc1F)OCC2
IC50 [2]: > 1000 nM

SMILES: O=C(NOCCO)c1cc2ccoc2c(F)c1Nc1ccc(I)cc1F
IC50 (COLO 205 [1]): 2.9 nM
Cmax [3]: 2080 ng/mL
AUC(0-t) [4]: 8370 ng·h/mL
half-life [5]: 1.7 h

More lines, main results first:

IC50 (COLO 205 [1]): 10 nM
SMILES: O=C(NOCCO)c1cc2c(c(F)c1Nc1ccc(I)cc1F)OCC2

IC50 (COLO 205 [1]): > 1000 nM
IC50 [2]: > 1000 nM
SMILES: O=C(c1cc2c(c(F)c1Nc1ccc(I)cc1F)OCC2)N1C[C@@H](O)CO1

IC50 (COLO 205 [1]): > 1000 nM
SMILES: O=C(NOCCO)c1cc2c(cc1Nc1ccc(I)cc1F)OCC2

IC50 (COLO 205 [1]): 4.7 nM
Cmax [3]: 13600 ng/mL
AUC(0-t) [4]: 43300 ng·h/mL
half-life [5]: 2.5 h
clearance [6]: 3.4 mL/min/kg
Vd [7]: 0.8 L/kg
bioavailability [8]: 80%
SMILES: O=C(NOC(CO)CO)c1cc2ccoc2c(F)c1Nc1ccc(I)cc1F
Activity (A549): Active
Activity (MDA-MB-231): Active
Activity (Calu-6): Active
Activity (SW480): Active
Activity (DLD-1): Active
Activity (HT-29): Active
Activity (U-937): inactive
Activity (HeLa): inactive
Activity (NCI-H1299): inactive
inhibition in vivo at 10 mg/kg (COLO 205 [9]): 78%
Activity (Mus musculus): Non-Toxic

IC50 (COLO 205 [1]): 76.5 nM
SMILES: O=C(NOCCCO)c1cc2ccoc2c(F)c1Nc1ccc(I)cc1F

IC50 (COLO 205 [1]): 59 nM
SMILES: Cn1cnc2c(F)c(Nc3ccc(Br)cc3Cl)c(C(=O)NOCCO)cc21 [SELUMETINIB]
Activity (A549): inactive
Activity (MDA-MB-231): inactive
inhibition in vivo at 10 mg/kg (COLO 205 [9]): 60%
Activity (Mus musculus): Non-Toxic

IC50 (COLO 205 [1]): 7.2 nM
Cmax [3]: 342 ng/mL
AUC(0-t) [4]: 1470 ng·h/mL
half-life [5]: 2 h
clearance [6]: 73.6 mL/min/kg
Vd [7]: 9.4 L/kg
bioavailability [8]: 62%
SMILES: O=C(NOC[C@H](O)CO)c1cc2c(c(F)c1Nc1ccc(I)cc1F)OCC2
